Read-outs that look alike come from different tables or passages of the source.
Legend:
Jeko-1 = experiment: Long-term proliferation (LTP) assay; assay type: cell-based; settings: Homo sapiens
Granta-519 = experiment: Long-term proliferation (LTP) assay; assay type: cell-based; settings: Homo sapiens
[1] = system: cellular methylation (symmetric di-methyl arginine) in Maver-1 cells; experiment: In Cell Western (ICW) methylation assay, SYM11 antibody; assay type: cell-based; settings: Homo sapiens, Maver1, 96 h, 4 days of treatment, n=1
Procedure: [Worded in the source for another cell line; this cell line is reported under the same test.] Percent inhibition was determined and IC50 curves were generated using triplicate wells per concentration of compound. IC50 values were calculated using GraphPad Prism using a 4-parametric fit of the normalized dose response curves with the top fixed to 100%. Z-138 cells were seeded in assay medium at a concentration of 50,000 cells per mL to a 384-well cell culture plate with 50 μL per well. Compound (100 nL) from 384 well source plates was added directly to 384 well cell plate. Plates were incubated at 37° C., 5% CO2 for 96 hours. After four days of incubation, 40 μL of cells from incubated plates were added to poly-d-lysine coated 384 well culture plates (BD Biosciences 356697). Plates were incubated at room temperature for 30 minutes then incubated at 37° C., 5% CO2 for 5 hours. After the incubation, 40 μL per well of 8% paraformaldehyde in PBS (16% paraformaldahyde was diluted to 8% in PBS) was added to each plate and incubated for 30 minutes. Plates were transferred to a Biotek 405 plate washer and washed 5 times with 100 μL per well of wash buffer (1×PBS with 0.1% Triton X-100 (v/v)). […] The average of the ratio values for each control type was calculated and used to determine the percent inhibition for each test well in the plate. […] Percent inhibition was determined and IC50 curves were generated using triplicate wells per concentration of compound. […]

[2] = Body weight loss in Maver-1 xenograft study; assay type: in vivo; settings: 21 days
Procedure: Data presented in this example were determined after analysis of 21 day samples of mantle cell lymphoma tumors. Cmin PK samples were taken prior to the last dose on day 21. Tumors were excised, weighed and processed for methyl mark. Methyl mark reduction was measured in tumor samples and is shown as percent of vehicle control (POC). Both SYM11 and sDMA Elisa were used to measure methyl mark and the data shown is averaged from 10 animals. Tumor growth inhibition was determined using tumor volume reduction at day 21 expressed as a percent of POC. In vivo inhibition curves were also generated and IC50 values determined. Plasma levels from each group are averaged from 5 animals. […] The average body weight loss (BWL) in all groups was <6%. All doses tested show >50% TGI. […] The average BWL in all groups was <4%. The average BWL in all groups was <8%, except in the 100 mg/kg does group were 4 animals exceeded BWL of 15%.

[3] = system: sDMA methylation in bone marrow (surrogate tissue); experiment: sDMA Western blot of bone marrow samples from Z-138 efficacy study; assay type: in vivo; settings: bone marrow harvested on day 21
[4] = system: SW48 colon cancer cells (SW48−/− vs SW48); experiment: Sensitivity of cells lacking p53 versus wild-type; assay type: cell-based; settings: based on EC50, gIC50, or gIC90
From the text: PRMT5 methylation of non-histone substrates (such as E2F1 and p53) also contributes to cancer cell growth and death. Results of Western blot and PCR experiments indicate PRMT5 inhibition leads to gene expression and splicing changes, ultimately resulting in the induction of p53 in cancer cells. A PRMT5 inhibitor of Formula C was used to generate the data in FIG. 21 and FIG. 22.

[5] = 264 h, 11-day treatment, N = 1, read-out: Formula B LTP IC50
[6] = 264 h, 11-day treatment, N = 1, read-out: Formula B LTP IC90

Row | SMILES | IC50 (Jeko-1; [5]) [nM] | IC90 (Jeko-1; [6]) [nM] | IC50 (Jeko-1; Table 3, read-out: LTP IC50) [nM] | IC50 (Granta-519; [5]) [nM] | IC90 (Granta-519; [6]) [nM] | IC50 (Granta-519; Table 3, read-out: LTP IC50) [nM] | IC50 [1] [nM] | average body weight loss (BWL) in all groups [2] [%] | levels of sDMA methylation in bone marrow [3] | sensitivity of cells lacking p53 compared to wild-type [4]
1 | CC(=O)N1CCC(Nc2cc(C(=O)NC[C@H](O)CN3CCc4ccccc4C3)ccn2)CC1 [Formula B] | 14 | 149 | 5.2 | 12 | 77 | 6 | 1.9 | < 4 | More of a dose-dependent response | 
2 | O=C(NC[C@H](O)CN1CCc2ccccc2C1)c1ccnc(NC2CCC2)c1 [Formula C] |  |  |  |  |  |  |  |  |  | less sensitive

From US10653693B2, “PRMT5 inhibitors and uses thereof” (Epizyme, Inc., priority 2014, dated 2020)
